Assays:
[1] = system: Oryzaphagus oryzae; experiment: Rice field trials, number of Oryzaphagus oryzae (Example 2, Trials 1-2, Brazil); type: in vivo; conditions: 3 days after application; for Number of Oryzaphagus oryzae, Average: average of 4 repetitions; for Number of Oryzaphagus oryzae, Repetition A / Number of Oryzaphagus oryzae, Repetition B / Number of Oryzaphagus oryzae, Repetition C / Number of Oryzaphagus oryzae, Repetition D: one application
Experimental: (§1) All applications were made with an EC formulation containing 650 g/L of pelargonic acid (e.g., 685 g/L of 95% purity pelargonic acid), an anionic emulsifier and a branched fatty acid ester solvent.
Trials 1-2 assessing the use of pelargonic acid for controlling Oryzaphagus oryzae in rice were conducted in Brazil. One application was made 5 days after the first flood irrigation. Assessments of the number of Oryzaphagus oryzae were made three (3) days after application for each of the four (4) repetitions at each dose rate.

[2] = system: Diabrotica speciosa; experiment: Potato field trials, control of Diabrotica speciosa (Example 3); type: in vivo; conditions: 400 L water/ha, two applications 7 d apart, Actara 0.05 kg/ha
Excerpt: as §1, with “solvent. […]. […] Potatoes—Diabrotica speciosa (Cucurbit beetle)-DIABSC [table] [table]” for “solvent.”

[3] = Trial 1, listed as PA 487.5 g/ha
[4] = Trial 1, listed as PA 1300 g/ha
[5] = Trial 2, listed as PA 487.5 g/ha
[6] = Trial 2, listed as PA 1300 g/ha

## CCCCCCCCC(=O)O [PA 650 g/ha, pelargonic acid]
[1]; Trial 1
  E %: 90%
  Number of Oryzaphagus oryzae, Average: 0.25 b
  Number of Oryzaphagus oryzae, Repetition A: 1
  Number of Oryzaphagus oryzae, Repetition B: 0
  Number of Oryzaphagus oryzae, Repetition C: 0
  Number of Oryzaphagus oryzae, Repetition D: 0
[1]; [3]
  Number of Oryzaphagus oryzae, Average: 0.5 b
  E %: 80%
  Number of Oryzaphagus oryzae, Repetition A: 0
  Number of Oryzaphagus oryzae, Repetition B: 1
  Number of Oryzaphagus oryzae, Repetition C: 1
  Number of Oryzaphagus oryzae, Repetition D: 0
[1]; Trial 1, listed as PA 975 g/ha
  Number of Oryzaphagus oryzae, Average: 0.25 b
  E %: 90%
  Number of Oryzaphagus oryzae, Repetition A: 0
  Number of Oryzaphagus oryzae, Repetition B: 0
  Number of Oryzaphagus oryzae, Repetition C: 0
  Number of Oryzaphagus oryzae, Repetition D: 1
[1]; [4]
  Number of Oryzaphagus oryzae, Average: 0 b
  E %: 100%
  Number of Oryzaphagus oryzae, Repetition A: 0
  Number of Oryzaphagus oryzae, Repetition B: 0
  Number of Oryzaphagus oryzae, Repetition C: 0
  Number of Oryzaphagus oryzae, Repetition D: 0
[1]; Trial 2
  E %: 77.78%
  Number of Oryzaphagus oryzae, Average: 0.5 ab
  Number of Oryzaphagus oryzae, Repetition A: 1
  Number of Oryzaphagus oryzae, Repetition B: 0
  Number of Oryzaphagus oryzae, Repetition C: 0
  Number of Oryzaphagus oryzae, Repetition D: 1
[1]; [5]
  Number of Oryzaphagus oryzae, Average: 0.75 ab
  E %: 66.67%
  Number of Oryzaphagus oryzae, Repetition A: 0
  Number of Oryzaphagus oryzae, Repetition B: 1
  Number of Oryzaphagus oryzae, Repetition C: 2
  Number of Oryzaphagus oryzae, Repetition D: 0
[1]; Trial 2, listed as PA 975 g/ha
  Number of Oryzaphagus oryzae, Average: 0.25 b
  E %: 88.89%
  Number of Oryzaphagus oryzae, Repetition A: 1
  Number of Oryzaphagus oryzae, Repetition B: 0
  Number of Oryzaphagus oryzae, Repetition C: 0
  Number of Oryzaphagus oryzae, Repetition D: 0
[1]; [6]
  Number of Oryzaphagus oryzae, Average: 0 b
  E %: 100%
  Number of Oryzaphagus oryzae, Repetition A: 0
  Number of Oryzaphagus oryzae, Repetition B: 0
  Number of Oryzaphagus oryzae, Repetition C: 0
  Number of Oryzaphagus oryzae, Repetition D: 0
[2]; Trial 1, potato, 3 DAA
  # Insects, % UNCK: 67.74b % UNCK
[2]; Trial 1, potato, 3 DAA, listed as PA 487.5 g/ha
  # Insects, % UNCK: 48.39ab % UNCK
[2]; Trial 1, potato, 3 DAA, listed as PA 812.5 g/ha
  # Insects, % UNCK: 64.52b % UNCK
[2]; Trial 1, potato, 3 DAA, listed as PA 975 g/ha
  # Insects, % UNCK: 74.19b % UNCK
[2]; Trial 1, potato, 3 DAB
  # Insects, % UNCK: 84.21c % UNCK
[2]; Trial 1, potato, 3 DAB, listed as PA 487.5 g/ha
  # Insects, % UNCK: 34.2b1 % UNCK
[2]; Trial 1, potato, 3 DAB, listed as PA 812.5 g/ha
  # Insects, % UNCK: 86.84c % UNCK
[2]; Trial 1, potato, 3 DAB, listed as PA 975 g/ha
  # Insects, % UNCK: 84.21c % UNCK
[2]; Trial 1, potato, 7 DAA
  # Insects, % UNCK: 55.88abc % UNCK
[2]; Trial 1, potato, 7 DAA, listed as PA 487.5 g/ha
  # Insects, % UNCK: 29.4ab % UNCK
[2]; Trial 1, potato, 7 DAA, listed as PA 812.5 g/ha
  # Insects, % UNCK: 61.76bc % UNCK
[2]; Trial 1, potato, 7 DAA, listed as PA 975 g/ha
  # Insects, % UNCK: 64.71bc % UNCK
[2]; Trial 1, potato, 7 DAB
  # Insects, % UNCK: 81.08b % UNCK
[2]; Trial 1, potato, 7 DAB, listed as PA 487.5 g/ha
  # Insects, % UNCK: 54.05b % UNCK
[2]; Trial 1, potato, 7 DAB, listed as PA 812.5 g/ha
  # Insects, % UNCK: 83.78b % UNCK
[2]; Trial 1, potato, 7 DAB, listed as PA 975 g/ha
  # Insects, % UNCK: 83.78b % UNCK
[2]; Trial 2, potato, 3 DAA
  # Insects, % UNCK: 61.90bc % UNCK
[2]; Trial 2, potato, 3 DAA, listed as PA 487.5 g/ha
  # Insects, % UNCK: 38.10b % UNCK
[2]; Trial 2, potato, 3 DAA, listed as PA 812.5 g/ha
  # Insects, % UNCK: 80.95cd % UNCK
[2]; Trial 2, potato, 3 DAA, listed as PA 975 g/ha
  # Insects, % UNCK: 95.24de % UNCK
[2]; Trial 2, potato, 3 DAB
  # Insects, % UNCK: 25.00ab % UNCK
[2]; Trial 2, potato, 3 DAB, listed as PA 487.5 g/ha
  # Insects, % UNCK: 25.00ab % UNCK
[2]; Trial 2, potato, 3 DAB, listed as PA 812.5 g/ha
  # Insects, % UNCK: 28.57b % UNCK
[2]; Trial 2, potato, 3 DAB, listed as PA 975 g/ha
  # Insects, % UNCK: 53.57c % UNCK
[2]; Trial 2, potato, 7 DAA
  # Insects, % UNCK: 38.10b % UNCK
[2]; Trial 2, potato, 7 DAA, listed as PA 487.5 g/ha
  # Insects, % UNCK: 23.81ab % UNCK
[2]; Trial 2, potato, 7 DAA, listed as PA 812.5 g/ha
  # Insects, % UNCK: 85.71c % UNCK
[2]; Trial 2, potato, 7 DAA, listed as PA 975 g/ha
  # Insects, % UNCK: 100.00d % UNCK
[2]; Trial 2, potato, 7 DAB
  # Insects, % UNCK: 87.50bc % UNCK
[2]; Trial 2, potato, 7 DAB, listed as PA 487.5 g/ha
  # Insects, % UNCK: 70.83b % UNCK
[2]; Trial 2, potato, 7 DAB, listed as PA 812.5 g/ha
  # Insects, % UNCK: 91.67c % UNCK
[2]; Trial 2, potato, 7 DAB, listed as PA 975 g/ha
  # Insects, % UNCK: 100.00c % UNCK
[2]; Trial 2, potato, 10 DAB
  # Insects, % UNCK: 86.96bc % UNCK
[2]; Trial 2, potato, 10 DAB, listed as PA 487.5 g/ha
  # Insects, % UNCK: 68.57b % UNCK
[2]; Trial 2, potato, 10 DAB, listed as PA 812.5 g/ha
  # Insects, % UNCK: 91.30c % UNCK
[2]; Trial 2, potato, 10 DAB, listed as PA 975 g/ha
  # Insects, % UNCK: 100.00c % UNCK

— patent US20250127162A1, “METHODS AND COMPOSITIONS FOR CONTROLLING PESTS IN RICE” (Globachem NV, priority 2022, published 2025)
